Source: ChEMBL document CHEMBL1201862, “PubChem BioAssay data set” (2004)
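Assay format: 96-well plates, 48-hour exposure. At the GI50, growth is halved.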 Activity calls are given as the source filed them. Cut-off read from the data, not from the text of the source: active = GI50 up to about 1.1 µM and inactive = higher.

Key:
Assay in all cases: inhibition of tumour cell growth, NCI panel, 48 h
TK-10 = system: TK-10
UO-31 = system: UO-31
NCI/ADR-RES = system: NCI/ADR-RES
MCF7 = system: MCF7
MOLT-4 = system: MOLT-4
SNB-75 = system: SNB-75
NCI-H226 = system: NCI-H226
OVCAR-8 = system: OVCAR-8
MDA-MB-231 = system: MDA-MB-231
SK-MEL-5 = system: SK-MEL-5
KM12 = system: KM12
HOP-92 = system: HOP-92
T47D = system: T47D
MDA-N = system: MDA-N
SNB-19 = system: SNB-19
COLO 205 = system: COLO 205
OVCAR-3 = system: OVCAR-3
HCC 2998 = system: HCC 2998
HCT-116 = system: HCT-116
K562 = system: K562

Row | SMILES | GI50 (TK-10) | GI50 (UO-31) | GI50 (NCI/ADR-RES) | GI50 (MCF7) | GI50 (MOLT-4) | GI50 (SNB-75) | GI50 (NCI-H226) | GI50 (OVCAR-8) | GI50 (MDA-MB-231) | GI50 (SK-MEL-5) | GI50 (KM12) | GI50 (HOP-92) | GI50 (T47D) | GI50 (MDA-N) | GI50 (SNB-19) | GI50 (COLO 205) | GI50 (OVCAR-3) | GI50 (HCC 2998) | GI50 (HCT-116) | GI50 (K562)
1 | CC(=O)/C(=C/NC(=S)Nc1ccc(Cl)c(Cl)c1)C(=O)Nc1ccccc1C | 43.8 µM (inactive) | 22.3 µM (inactive) | 18.7 µM (inactive) | 26.9 µM (inactive) | 16 µM (inactive) | 18.1 µM (inactive) | 13.8 µM (inactive) | 18.9 µM (inactive) | 27.8 µM (inactive) | 19.2 µM (inactive) | 24.9 µM (inactive) | 22 µM (inactive) | 4.65 µM (inactive) | 25.3 µM (inactive) | 26.8 µM (inactive) | 28.2 µM (inactive) | 24.3 µM (inactive) | 32.3 µM (inactive) | 33.7 µM (inactive) | –
2 | O=C1/C(=C\c2cccc(Oc3ccccc3)c2)SC(c2ccccc2)N1c1cc(Cl)ccc1Cl (stereo not given) | 47 µM (inactive) | 37.2 µM (inactive) | 42.6 µM (inactive) | 25.9 µM (inactive) | 10.4 µM (inactive) | > 100 µM (inactive) | – | 21.3 µM (inactive) | 32.4 µM (inactive) | 27 µM (inactive) | 18.2 µM (inactive) | 17.7 µM (inactive) | 28.4 µM (inactive) | 18.4 µM (inactive) | 43.4 µM (inactive) | 53.5 µM (inactive) | 24.8 µM (inactive) | 37.2 µM (inactive) | 17.2 µM (inactive) | 21.2 µM (inactive)
3 | CC(C)(C)O/N=C/c1cc(NC(=S)c2ccsc2)ccc1Cl | 13.7 µM (inactive) | 12.2 µM (inactive) | 11.8 µM (inactive) | 11.2 µM (inactive) | 5.71 µM (inactive) | 23.6 µM (inactive) | 14 µM (inactive) | 13.1 µM (inactive) | 16.4 µM (inactive) | 3.99 µM (inactive) | 9.89 µM (inactive) | 19.1 µM (inactive) | 4.01 µM (inactive) | 15.2 µM (inactive) | – | 14.9 µM (inactive) | 14.9 µM (inactive) | 14.5 µM (inactive) | 11.4 µM (inactive) | –
4 | Cc1ccc2c(c1)C(=O)C1(C2)Cc2ccc(C)cc2C1=O | > 100 µM (inactive) | > 100 µM (inactive) | > 100 µM (inactive) | > 100 µM (inactive) | > 100 µM (inactive) | > 100 µM (inactive) | – | > 100 µM (inactive) | > 100 µM (inactive) | > 100 µM (inactive) | – | > 100 µM (inactive) | > 100 µM (inactive) | > 100 µM (inactive) | > 100 µM (inactive) | – | > 100 µM (inactive) | > 100 µM (inactive) | > 100 µM (inactive) | > 100 µM (inactive)
5 | C/C(Cl)=N\OC(=O)Nc1ccc(C)cc1 | 15.2 µM (inactive) | 17.4 µM (inactive) | 19.7 µM (inactive) | 11.9 µM (inactive) | > 10 µM (inactive) | 12.8 µM (inactive) | – | 17.9 µM (inactive) | 20.3 µM (inactive) | 17.7 µM (inactive) | 17.2 µM (inactive) | 20.7 µM (inactive) | 16 µM (inactive) | 16.3 µM (inactive) | > 100 µM (inactive) | 16.2 µM (inactive) | 18 µM (inactive) | 16.9 µM (inactive) | 19.1 µM (inactive) | 9.91 µM (inactive)
6 | COc1cc(OC)cc(Oc2nc3ccc(C(F)(F)F)cc3nc2-c2ccccc2)c1 | > 100 µM (inactive) | > 100 µM (inactive) | > 100 µM (inactive) | > 100 µM (inactive) | > 100 µM (inactive) | > 100 µM (inactive) | > 100 µM (inactive) | > 100 µM (inactive) | > 100 µM (inactive) | > 100 µM (inactive) | > 100 µM (inactive) | > 100 µM (inactive) | 28.4 µM (inactive) | > 100 µM (inactive) | – | > 100 µM (inactive) | > 100 µM (inactive) | > 100 µM (inactive) | > 100 µM (inactive) | > 100 µM (inactive)
7 | COC(=O)C(=O)Nc1cc2c3c(c1)Oc1cccc4c1C3(C)c1c(cccc1O2)O4 | 99.5 µM (inactive) | 98.6 µM (inactive) | 6.56 µM (inactive) | > 100 µM (inactive) | 39.2 µM (inactive) | > 100 µM (inactive) | 4.75 µM (inactive) | – | > 100 µM (inactive) | > 100 µM (inactive) | > 100 µM (inactive) | 72.6 µM (inactive) | > 61.7 µM (inactive) | > 100 µM (inactive) | > 100 µM (inactive) | > 31.6 µM (inactive) | 34.2 µM (inactive) | > 59.2 µM (inactive) | > 75.2 µM (inactive) | –
8 | CCOP(C)(=O)C(Cc1c[nH]c2ccccc12)C(=O)O (stereo not given) | – | > 100 µM (inactive) | > 100 µM (inactive) | > 100 µM (inactive) | > 100 µM (inactive) | > 100 µM (inactive) | – | > 100 µM (inactive) | > 100 µM (inactive) | > 100 µM (inactive) | > 100 µM (inactive) | > 100 µM (inactive) | > 100 µM (inactive) | > 100 µM (inactive) | > 100 µM (inactive) | > 100 µM (inactive) | > 100 µM (inactive) | > 100 µM (inactive) | > 100 µM (inactive) | > 100 µM (inactive)
9 | CC(NO)/C(=N/O)c1ccco1 (stereo not given) | > 10 µM (inactive) | > 10 µM (inactive) | > 10 µM (inactive) | > 10 µM (inactive) | > 10 µM (inactive) | – | > 10 µM (inactive) | > 10 µM (inactive) | > 10 µM (inactive) | – | > 10 µM (inactive) | > 10 µM (inactive) | > 10 µM (inactive) | > 10 µM (inactive) | > 10 µM (inactive) | > 10 µM (inactive) | > 10 µM (inactive) | > 10 µM (inactive) | > 10 µM (inactive) | > 10 µM (inactive)
10 | O=C(CCc1cccc(O)c1)NCCCNC(=O)CCc1cccc(O)c1 | – | > 100 µM (inactive) | > 100 µM (inactive) | > 100 µM (inactive) | > 100 µM (inactive) | – | – | > 100 µM (inactive) | > 100 µM (inactive) | > 100 µM (inactive) | > 100 µM (inactive) | 50.9 µM (inactive) | > 100 µM (inactive) | > 100 µM (inactive) | > 100 µM (inactive) | > 100 µM (inactive) | > 100 µM (inactive) | > 100 µM (inactive) | > 100 µM (inactive) | > 100 µM (inactive)
11 | COC(=O)/C=C/c1ccc2c(c1)CC1(Cc3ccccc3C1)C2 | > 100 µM (inactive) | > 100 µM (inactive) | > 100 µM (inactive) | > 100 µM (inactive) | 34.9 µM (inactive) | – | > 100 µM (inactive) | > 100 µM (inactive) | > 100 µM (inactive) | 43.2 µM (inactive) | > 100 µM (inactive) | > 100 µM (inactive) | > 100 µM (inactive) | 87.5 µM (inactive) | – | > 100 µM (inactive) | > 100 µM (inactive) | > 100 µM (inactive) | 0.0478 µM (active) | 37.5 µM (inactive)
